{"source": "PubChem BioAssay (NCI)", "assay_in_all_cases": "growth of human tumour cells (NCI), 48 h", "key": {"CAKI-1 renal": {"system": "CAKI-1 renal"}, "HCT-15 colon": {"system": "HCT-15 colon"}, "MCF7 breast": {"system": "MCF7 breast"}, "MDA-MB-231 breast": {"system": "MDA-MB-231 breast"}, "MDA-N": {"system": "MDA-N"}, "OVCAR-4 ovarian": {"system": "OVCAR-4 ovarian"}, "SF-539 CNS": {"system": "SF-539 CNS"}, "SK-MEL-28 melanoma": {"system": "SK-MEL-28 melanoma"}, "SR leukemia": {"system": "SR leukemia"}, "SW-620 colon": {"system": "SW-620 colon"}, "U251 CNS": {"system": "U251 CNS"}}, "note": "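Assay format: 96-well plates, 48-hour exposure. Definition used: TGI = concentration required for complete inhibition of growth.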"}
{"molecule": "Oc1[nH]c2ccccc2c1N=NC(=S)Nc1cccc(Cl)c1", "values": [{"measurement": "TGI", "setting": "CAKI-1 renal", "result": 44.9, "unit": "µM"}, {"measurement": "TGI", "setting": "HCT-15 colon", "result": "> 100", "unit": "µM"}, {"measurement": "TGI", "setting": "MCF7 breast", "result": "> 100", "unit": "µM"}, {"measurement": "TGI", "setting": "MDA-MB-231 breast", "result": 52.3, "unit": "µM"}, {"measurement": "TGI", "setting": "MDA-N", "result": "> 100", "unit": "µM"}, {"measurement": "TGI", "setting": "OVCAR-4 ovarian", "result": 59.4, "unit": "µM"}, {"measurement": "TGI", "setting": "SF-539 CNS", "result": 22.4, "unit": "µM"}, {"measurement": "TGI", "setting": "SK-MEL-28 melanoma", "result": "> 100", "unit": "µM"}, {"measurement": "TGI", "setting": "SR leukemia", "result": 9.71, "unit": "µM"}, {"measurement": "TGI", "setting": "SW-620 colon", "result": 26.8, "unit": "µM"}, {"measurement": "TGI", "setting": "U251 CNS", "result": 89.1, "unit": "µM"}]}
{"molecule": "O=C(/C=C/c1cc2ccccc2o1)N1CCN(c2ccccn2)CC1", "values": [{"measurement": "TGI", "setting": "CAKI-1 renal", "result": "> 100", "unit": "µM"}, {"measurement": "TGI", "setting": "HCT-15 colon", "result": "> 100", "unit": "µM"}, {"measurement": "TGI", "setting": "MCF7 breast", "result": "> 100", "unit": "µM"}, {"measurement": "TGI", "setting": "MDA-MB-231 breast", "result": "> 100", "unit": "µM"}, {"measurement": "TGI", "setting": "MDA-N", "result": "> 100", "unit": "µM"}, {"measurement": "TGI", "setting": "OVCAR-4 ovarian", "result": "> 100", "unit": "µM"}, {"measurement": "TGI", "setting": "SF-539 CNS", "result": "> 100", "unit": "µM"}, {"measurement": "TGI", "setting": "SK-MEL-28 melanoma", "result": "> 100", "unit": "µM"}, {"measurement": "TGI", "setting": "SR leukemia", "result": "> 100", "unit": "µM"}, {"measurement": "TGI", "setting": "SW-620 colon", "result": "> 100", "unit": "µM"}, {"measurement": "TGI", "setting": "U251 CNS", "result": "> 100", "unit": "µM"}]}
{"molecule": "COC(=O)C(Cc1c[nH]c2ccccc12)NP(=O)(O)OCC1OC(n2cc(I)c(=O)[nH]c2=O)CC1O", "note": "(centres undefined)", "values": [{"measurement": "TGI", "setting": "CAKI-1 renal", "result": "> 100", "unit": "µM"}, {"measurement": "TGI", "setting": "HCT-15 colon", "result": "> 100", "unit": "µM"}, {"measurement": "TGI", "setting": "MCF7 breast", "result": "> 100", "unit": "µM"}, {"measurement": "TGI", "setting": "MDA-MB-231 breast", "result": "> 100", "unit": "µM"}, {"measurement": "TGI", "setting": "MDA-N", "result": "> 100", "unit": "µM"}, {"measurement": "TGI", "setting": "OVCAR-4 ovarian", "result": "> 100", "unit": "µM"}, {"measurement": "TGI", "setting": "SF-539 CNS", "result": "> 100", "unit": "µM"}, {"measurement": "TGI", "setting": "SK-MEL-28 melanoma", "result": "> 100", "unit": "µM"}, {"measurement": "TGI", "setting": "SR leukemia", "result": "> 100", "unit": "µM"}, {"measurement": "TGI", "setting": "SW-620 colon", "result": "> 100", "unit": "µM"}, {"measurement": "TGI", "setting": "U251 CNS", "result": "> 100", "unit": "µM"}]}
{"molecule": "O=C1/C(=C/c2ccccc2S)N=C(c2ccccc2)N1c1nc2c(Cl)cc(Cl)cc2s1", "values": [{"measurement": "TGI", "setting": "CAKI-1 renal", "result": "> 100", "unit": "µM"}, {"measurement": "TGI", "setting": "HCT-15 colon", "result": "> 100", "unit": "µM"}, {"measurement": "TGI", "setting": "MCF7 breast", "result": 58.1, "unit": "µM"}, {"measurement": "TGI", "setting": "MDA-MB-231 breast", "result": 80.9, "unit": "µM"}, {"measurement": "TGI", "setting": "MDA-N", "result": 36.9, "unit": "µM"}, {"measurement": "TGI", "setting": "OVCAR-4 ovarian", "result": 73.8, "unit": "µM"}, {"measurement": "TGI", "setting": "SF-539 CNS", "result": 40.8, "unit": "µM"}, {"measurement": "TGI", "setting": "SK-MEL-28 melanoma", "result": "> 100", "unit": "µM"}, {"measurement": "TGI", "setting": "SR leukemia", "result": 34, "unit": "µM"}, {"measurement": "TGI", "setting": "SW-620 colon", "result": "> 100", "unit": "µM"}, {"measurement": "TGI", "setting": "U251 CNS", "result": 54.2, "unit": "µM"}]}
